Literature values, collected in PMC9683570.
Structures can show the parent of a compound that is named as a salt. Where two headings read alike, the source gives them in different places.

Legend:
[1] = tested on: hCaV1.2α, β2, α2δ1 subunits; parameters: method as in PMID 30151907; conditions: IonWorks Barracuda, ambient temperature, […] Ca2+, current at 0 mV step, 10 s interval, rundown adjusted; read-out: IC50 (Li et al. 2018)
L-type Ca2+ current [2] = tested on: L-type Ca2+ current; parameters: method as in PMID 19367686; conditions: 20–25 °C, 10 Ca2+
hCaV1.2, β2, α2δ = conditions: ambient, 1.8 Ca2+
[3] = tested on: CaVAb (voltage-dependent Ca2+-selective channel); conditions: 13 Ba2+
hCav1.2 = tested on: hCav1.2; parameters: method as in PMID 23651875; conditions: RT
NaV1.5 channels = conditions: similar concentrations as tested on CaV1.2
[4] = parameters: method as in DrugBank; conditions: predicted, based on ChemAxon; ref DrugBank
Ca2+ current (L-type) = conditions: peak current inhibited less potently than late current at end of step depolarization
CaV1.2, α2δ, β2a [5] = conditions: 22–25 °C, 20 Ba2+
CaV1.2, α2δ, β2a [6] = conditions: ~25 °C
CaV1.2, α2δ, β1b = conditions: read-out: IC50 (± SE); RT, 10 Ba2+
[7] = tested on: CaV1.2, α2δ, β2a along with Kir2.3; conditions: 30 Ba2+
L-type Ca2+ current [8] = conditions: RT (22–25 °C), 2 Ca2+
L-type Ca2+ channels = tested on: L-type Ca2+ channels; parameters: method as in PMID 17909749; conditions: from 22°C to 37°C

## COc1ccc(CCN(C)CCCC(C#N)(c2ccc(OC)c(OC)c2)C(C)C)cc1OC (racemic) [Verapamil, (±)-verapamil hydrochloride]
[1]
  IC50: […]
L-type Ca2+ current [2]
  IC50: 0.79 µM
hCaV1.2, β2, α2δ
  nH (± SE): […]
[3]; 20 pulses at 1 Hz, read-out: IC50 (± SE)
  IC50: […]
hCav1.2
  pIC50: […]
hCav1.2; converted from pIC50
  IC50: […]

## O=C1CC[C@@]2(O)[C@H]3Cc4ccc(O)c5c4[C@@]2(CCN3CC2CC2)[C@H]1O5 [Naltrexone, naltrexone hydrochloride]
NaV1.5 channels
  nH on the peak and the late current: ≥ 0.8

## Cc1nccn1CC1CCc2c(c3ccccc3n2C)C1=O (stereo not drawn) [Ondansetron]
[1]
  IC50: 9310 µM
[4]
  Log P: 2.35

## COCCOC(=O)C1=C(C)NC(C)=C(C(=O)OC(C)C)C1c1cccc([N+](=O)[O-])c1 (stereo not drawn) [nimodipine]
Ca2+ current (L-type)
  difference in the IC50s, peak vs late Ca2+ current: 13.1 X

## C=CCN1CC[C@]23c4c5ccc(O)c4O[C@H]2C(=O)CC[C@@]3(O)[C@H]1C5 [Naloxone, Naloxone hydrochloride]
NaV1.5 channels
  nH on the peak and the late current: ≥ 0.8

## COc1ccc([C@@H]2Sc3ccccc3N(CCN(C)C)C(=O)[C@@H]2OC(C)=O)cc1 [Diltiazem, diltiazem hydrochloride]
[1]
  IC50: 31.6 µM
CaV1.2, α2δ, β2a [5]
  IC50: 85 ± 9 µM
L-type Ca2+ current [2]
  IC50: 30 µM
hCaV1.2, β2, α2δ
  IC50: 0.76 ± 0.08 µM
  nH (± SE): 1.14 ± 0.15
[3]; 20 ms single pulse from -120 mV, read-out: IC50, resting state block
  IC50: 41 µM
[3]; 20 pulses at 1 Hz from -120 mV, read-out: IC50, use-dependent block
  IC50: 10.4 µM
CaV1.2, α2δ, β2a [6]; 5 mM Ba2+, read-out: IC50 (± SE) (Ba2+) (converted)
  IC50: 109 µM
CaV1.2, α2δ, β2a [6]; 1.8 Ca2+, read-out: IC50 (± SE) (Ca2+)
  IC50: 250 ± 16 µM
CaV1.2, α2δ, β1b
  IC50: 65 ± 13 µM
[7]; read-out: IC50 (automated), PatchXpress 7000A, 22–26 °C
  IC50: 36 µM
[7]; read-out: IC50 (manual), manual, 20–25 °C
  IC50: 44 µM
L-type Ca2+ current [8]
  nH: 0.77
L-type Ca2+ current [8]; read-out: IC50 (± SE)
  IC50: 0.63 ± 0.05 µM

## CC(C)COCC(CN(Cc1ccccc1)c1ccccc1)N1CCCC1 (stereo not drawn) [Bepridil]
[1]
  IC50: 638 µM
[4]
  Log P: 5.49

## CC(C)(C)c1ccc(C(O)CCCN2CCC(C(O)(c3ccccc3)c3ccccc3)CC2)cc1 (stereo not drawn) [Terfenadine]
[1]
  IC50: […]
[4]
  Log P: 6.48

## Cc1c(-c2ccccc2)oc2c(C(=O)OCCN3CCCCC3)cccc2c1=O [flavoxate]
L-type Ca2+ channels
  increase in block potency on raising the recording temperature: 2.2 X

## COC(=O)C1=C(C)NC(C)=C(C(=O)OC)C1c1ccccc1[N+](=O)[O-] [nifedipine]
L-type Ca2+ channels
  increase in block potency on raising the recording temperature: 7 X

## CN(C)CCCN1c2ccccc2Sc2ccc(Cl)cc21 [Chlorpromazine]
[1]
  IC50: 6.35 µM
[4]
  Log P: 4.54
